A short description of this experiment: Inhibition of Rous sarcoma virus v-Src.

As a reminder, the IC50 is the concentration that gives 50% inhibition. Lower therefore signals greater potency in that assay. Molecule `CC(CCC[C@@H](C)[C@H]1CC[C@H]2[C@@H]3CC=C4C[C@H](OS(=O)(=O)O)[C@@H](OS(=O)(=O)O)C[C@]4(C)[C@H]3CC[C@]12C)COS(=O)(=O)O` (some centres not stated) came in with a concentration for half-maximal inhibition (IC50) of 12 µM. For `CC(C)CCC[C@@H](COS(=O)(=O)O)[C@H]1CC[C@H]2[C@@H]3CC=C4C[C@H](OS(=O)(=O)O)CC[C@]4(C)[C@H]3CC[C@]12C` the value was 31 µM; for `CC(C)CCC[C@@H](COS(=O)(=O)O)[C@H]1CC[C@H]2[C@@H]3CC=C4C[C@H](OS(=O)(=O)O)C[C@@H](O)[C@]4(C)[C@H]3CC[C@]12C`, 65 µM; for `C[C@@]12CCC(=O)c3coc(c31)C(=O)c1cc3c(O)ccc(O)c3cc12` [HELENAQUINOL], 0.6 µM. For `CC(C)CCC[C@@H](COS(=O)(=O)O)[C@H]1CC[C@H]2[C@@H]3CC[C@@H]4[C@H](O)[C@H](OS(=O)(=O)O)CC[C@]4(C)[C@H]3[C@@H](O)C[C@]12C` the value was 62 µM; for `CC(CCC[C@@H](C)[C@H]1CC[C@H]2[C@@H]3CC[C@H]4C[C@H](OS(=O)(=O)O)[C@@H](OS(=O)(=O)O)C[C@]4(C)[C@H]3CC[C@]12C)COS(=O)(=O)O` (some centres not stated), 11 µM; for `C[C@@]12CCC(=O)c3coc(c31)C(=O)c1cc3c(cc12)C(=O)C=CC3=O` [HELENAQUINONE], 1.5 µM.

The values are drawn from ChEMBL document CHEMBL1148089, “Inhibitors of protein tyrosine kinase pp60v-src: sterol sulfates from the brittle star Ophiarachna incrassata” (J Nat Prod, 1994).
